Data published in patent US8445207B2, “Genes based on thalidomide, valproic acid and methotrexate treatment for screening of drug inducing teratogenicity and screening method using thereof” (priority 2009, dated 2013).

Key:
[1] = tested on: JEG-3 (human placental choriocarcinoma cell line); experiment: Real-time RT-PCR quantification of gene expression in drug-treated JEG-3; format: cell-based; conditions: for Real time PCR (Relative ratio), KIAA0310: GenBank AB002308; for Real time PCR (Relative ratio), ATP10B: GenBank AB018258; for Real time PCR (Relative ratio), TTF2: GenBank AB209845; for Real time PCR (Relative ratio), TncRNA: GenBank AF001893; for Real time PCR (Relative ratio), C4orf19: GenBank AK001879; for Real time PCR (Relative ratio), CYP19A1: GenBank AK023571; for Real time PCR (Relative ratio), SLC40A1: GenBank AK023574; for Real time PCR (Relative ratio), ABTB2: GenBank AK095632; for Real time PCR (Relative ratio), TUBB3: GenBank AK122757; for Real time PCR (Relative ratio), MGC27016: GenBank AK125877; for Real time PCR (Relative ratio), GLCCI1: GenBank AK126731; for Real time PCR (Relative ratio), TFCP2L4: GenBank BC036890; for Real time PCR (Relative ratio), RGS2: GenBank BC042755; for Real time PCR (Relative ratio), SIAT7A: GenBank BC063830; for Real time PCR (Relative ratio), B7-H4: GenBank BX648021; for Real time PCR (Relative ratio), COBLL1: GenBank BX649112; for Real time PCR (Relative ratio), CGA: GenBank NM_000735; for Real time PCR (Relative ratio), PARP1: GenBank NM_001618; for Real time PCR (Relative ratio), SERPINB9: GenBank NM_004155; for Real time PCR (Relative ratio), ST8SIA4: GenBank NM_005668; for Real time PCR (Relative ratio), ABL1: GenBank NM_007313; for Real time PCR (Relative ratio), GRLF1: GenBank NM_024342; for Real time PCR (Relative ratio), LGP1: GenBank NM_032484; for Real time PCR (Relative ratio), NCOA3: GenBank NM_181659; for Real time PCR (Relative ratio), SR140: GenBank XM_031553; for Real time PCR (Relative ratio), SLC7A8: GenBank Y18483
Protocol: My IQ Real-Time PCR (Bio-Rad, USA) was performed to quantify the expressions of those genes.
Particularly, cDNA was synthesized using oligo dT primer and Superscript kit (Omniscipt™ kit, Qiagen, Co., USA) by reverse transcription. 0.2 μl of the cDNA, 3.8 μl of water, 0.5 μg of a sense primer, 0.5 μg of an antisense primer, and […] of SYBR Green I supermix (Bio-Rad, USA) were mixed, which was placed in a PCR tube, followed by real-time RT-PCR in My IQ real-time PCR machine as follows: Step 1: 95°, 3 minutes; Step 2 (45 cycles): Step 2-1: 95°, 10 seconds; Step 2-2: 55-65° 45 seconds; Step 3: 95°, 1 minute; Step 4: 55°, 1 minute; Step 5 (80 cycles): 55°, 10 seconds. SYBR green I (Bio-Rad, USA) staining was performed to quantify the PCR product. SYBR I staining is the staining method using double stranded DNA binding. So, the more double stranded DNA is generated during PCR, the stronger the fluorescence intensity becomes. First, target gene and endogenous control (GAPDH) primers were added to SYBR green master mix, followed by PCR. Then, primer optimization was performed to determine a proper concentration. Synthesized cDNA and each primer were mixed (Table 4), to which SYBR master mix was added, followed by PCR.

[2] = tested on: JEG-3 (human placental choriocarcinoma cell line); experiment: Cytotoxicity test (MTT assay) in JEG-3

Structure (SMILES) | Real time PCR (Relative ratio), KIAA0310 [1] | Real time PCR (Relative ratio), ATP10B [1] | Real time PCR (Relative ratio), TTF2 [1] | Real time PCR (Relative ratio), TncRNA [1] | Real time PCR (Relative ratio), C4orf19 [1] | Real time PCR (Relative ratio), CYP19A1 [1] | Real time PCR (Relative ratio), SLC40A1 [1] | Real time PCR (Relative ratio), ABTB2 [1] | Real time PCR (Relative ratio), TUBB3 [1] | Real time PCR (Relative ratio), MGC27016 [1] | Real time PCR (Relative ratio), GLCCI1 [1] | Real time PCR (Relative ratio), TFCP2L4 [1] | Real time PCR (Relative ratio), RGS2 [1] | Real time PCR (Relative ratio), SIAT7A [1] | Real time PCR (Relative ratio), B7-H4 [1] | Real time PCR (Relative ratio), COBLL1 [1] | Real time PCR (Relative ratio), CGA [1] | Real time PCR (Relative ratio), PARP1 [1] | Real time PCR (Relative ratio), SERPINB9 [1] | Real time PCR (Relative ratio), ST8SIA4 [1] | further results
CCCC(CCC)C(=O)O [VPA, valproic acid] | 5.7397 | 2.7083 | 1.6637 | 1.8204 | 2.9592 | 2.15 | 1.9425 | 4.0469 | 1.9015 | 2.3155 | 1.6023 | 2.292 | 2.8779 | 4.5249 | 0.0755 | 12.2271 | 2.6497 | 0.7443 | 7.1977 | 3.7161 | Real time PCR (Relative ratio), ABL1 [1]: 0.8681; Real time PCR (Relative ratio), GRLF1 [1]: 0.8281; Real time PCR (Relative ratio), LGP1 [1]: 0.4982; Real time PCR (Relative ratio), NCOA3 [1]: 2.1913; Real time PCR (Relative ratio), SR140 [1]: 0.3565; Real time PCR (Relative ratio), SLC7A8 [1]: 6.3157
CN(Cc1cnc2nc(N)nc(N)c2n1)c1ccc(C(=O)N[C@@H](CCC(=O)O)C(=O)O)cc1 [MTX, methotrexate] | 3.9217 | 2.6467 | 1.9659 | 2.2297 | 36.2463 | 1.7007 | 6.0098 | 0.1356 | 4.7892 | 2.3343 | 2.5941 | 0.7146 | 5.6716 | 8.3865 | 0.4198 | 1.4978 | 0.0829 | 0.2381 | 1.5208 | 0.955 | Real time PCR (Relative ratio), ABL1 [1]: 0.5159; Real time PCR (Relative ratio), GRLF1 [1]: 0.7048; Real time PCR (Relative ratio), LGP1 [1]: 0.6468; Real time PCR (Relative ratio), NCOA3 [1]: 2.4457; Real time PCR (Relative ratio), SR140 [1]: 0.1357; Real time PCR (Relative ratio), SLC7A8 [1]: 2.8779; cytotoxicity to JEG-3 ([2]; FIGS. 1, 2 and 3): confirmed to have toxicity; IC30 (concentration shows 70% survival rate) ([2]; JEG-3, 48 hours, MTT, FIG. 1): 4.570 mM
